Values quoted from earlier work in PubChem BioAssay AID1259409 (Chemical Carcinogenesis Research Information System (CCRIS), 2018).
Values joined by “and” are separate entries in the source; they are usually repeats but may differ in a detail not shown here. Equal values may be shown once.

System: rodent chemically induced tumor inhibition, incidence and multiplicity
Test: CCRIS tumor inhibitor studies
Settings: Carcinogen: NONE USED, Route [Inhibitor]: ORAL, Promoter: NONE USED

## CC(N)Cc1ccccc1 (stereo not given)
Dose [Inhibitor]: 0, 20 PPM IN FEED FOR 103 WK (STUDY DURATION: 2 YR), Species: MOUSE, Strain/Sex: B6C3F1/FEMALE, Target Tissue: Type of Lesion: HARDERIAN GLAND: ADENOMA
  tumour outcome (control, treated, inhibition, significance): 5/50 (10%), 2/50 (4%), 60%, not calculated
Dose [Inhibitor]: 0, 20 PPM IN FEED FOR 103 WK (STUDY DURATION: 2 YR), Species: MOUSE, Strain/Sex: B6C3F1/FEMALE, Target Tissue: Type of Lesion: LIVER: ADENOMA
  tumour outcome (control, treated, inhibition, significance): 5/50 (10%), 1/50 (2%), 80%, not calculated
Dose [Inhibitor]: 0, 20 PPM IN FEED FOR 103 WK (STUDY DURATION: 2 YR), Species: MOUSE, Strain/Sex: B6C3F1/FEMALE, Target Tissue: Type of Lesion: LUNG: ADENOMA OR CARCINOMA
  tumour outcome (control, treated, inhibition, significance): 8/50 (16%), 6/50 (12%), 25%, not calculated
Dose [Inhibitor]: 0, 20 PPM IN FEED FOR 103 WK (STUDY DURATION: 2 YR), Species: MOUSE, Strain/Sex: B6C3F1/FEMALE, Target Tissue: Type of Lesion: LUNG: ADENOMA
  tumour outcome (control, treated, inhibition, significance): 7/50 (14%), 4/50 (8%), 43%, not calculated
Dose [Inhibitor]: 0, 20 PPM IN FEED FOR 103 WK (STUDY DURATION: 2 YR), Species: MOUSE, Strain/Sex: B6C3F1/MALE, Target Tissue: Type of Lesion: HARDERIAN GLAND: ADENOMA
  tumour outcome (control, treated, inhibition, significance): 4/50 (8%), 2/50 (4%), 50%, not calculated
Dose [Inhibitor]: 0, 20 PPM IN FEED FOR 103 WK (STUDY DURATION: 2 YR), Species: MOUSE, Strain/Sex: B6C3F1/MALE, Target Tissue: Type of Lesion: LIVER: ADENOMA OR CARCINOMA
  tumour outcome (control, treated, inhibition, significance): 14/50 (28%), 12/50 (24%), 15%, not calculated
Dose [Inhibitor]: 0, 20 PPM IN FEED FOR 103 WK (STUDY DURATION: 2 YR), Species: MOUSE, Strain/Sex: B6C3F1/MALE, Target Tissue: Type of Lesion: LIVER: ADENOMA
  tumour outcome (control, treated, inhibition, significance): 10/50 (20%), 7/50 (14%), 30%, not calculated
Dose [Inhibitor]: 0, 20 PPM IN FEED FOR 103 WK (STUDY DURATION: 2 YR), Species: MOUSE, Strain/Sex: B6C3F1/MALE, Target Tissue: Type of Lesion: LIVER: CARCINOMA
  tumour outcome (control, treated, inhibition, significance): 4/50 (8%), 6/50 (12%), -50%, not calculated
Dose [Inhibitor]: 0, 20 PPM IN FEED FOR 103 WK (STUDY DURATION: 2 YR), Species: MOUSE, Strain/Sex: B6C3F1/MALE, Target Tissue: Type of Lesion: LUNG: ADENOMA
  tumour outcome (control, treated, inhibition, significance): 6/50 (12%), 2/50 (4%), 67%, not calculated
Dose [Inhibitor]: 0, 20 PPM IN FEED FOR 103 WK (STUDY DURATION: 2 YR), Species: RAT, Strain/Sex: F344/FEMALE, Target Tissue: Type of Lesion: ANTERIOR PITUITARY GLAND: ADENOMA
  tumour outcome (control, treated, inhibition, significance): 3/50 (62%), 24/48 (50%), 19%, not calculated
Dose [Inhibitor]: 0, 20 PPM IN FEED FOR 103 WK (STUDY DURATION: 2 YR), Species: RAT, Strain/Sex: F344/FEMALE, Target Tissue: Type of Lesion: MAMMARY GLAND: FIBROADENOMA
  tumour outcome (control, treated, inhibition, significance): 21/50 (42%), 11/50 (22%), 48%, not calculated
Dose [Inhibitor]: 0, 20 PPM IN FEED FOR 103 WK (STUDY DURATION: 2 YR), Species: RAT, Strain/Sex: F344/FEMALE, Target Tissue: Type of Lesion: UTERUS: ENDOMETRIAL STROMA POLYP
  tumour outcome (control, treated, inhibition, significance): 10/50 (20%), 6/50 (12%), 40%, not calculated
Dose [Inhibitor]: 0, 20 PPM IN FEED FOR 103 WK (STUDY DURATION: 2 YR), Species: RAT, Strain/Sex: F344/MALE, Target Tissue: Type of Lesion: ADRENAL GLAND: PHEOCHROMOCYTOMA
  tumour outcome (control, treated, inhibition, significance): 23/49 (47%), 15/44 (34%), 28%, not calculated
Dose [Inhibitor]: 0, 20 PPM IN FEED FOR 103 WK (STUDY DURATION: 2 YR), Species: RAT, Strain/Sex: F344/MALE, Target Tissue: Type of Lesion: ANTERIOR PITUITARY GLAND: ADENOMA
  tumour outcome (control, treated, inhibition, significance): 15/49 (31%), 15/48 (31%), 0%, not significant
Dose [Inhibitor]: 0, 100 PPM IN FEED FOR 103 WK (STUDY DURATION: 2 YR), Species: MOUSE, Strain/Sex: B6C3F1/FEMALE, Target Tissue: Type of Lesion: ANTERIOR PITUITARY GLAND: ADENOMA
  tumour outcome (control, treated, inhibition, significance): 12/49 (24%), 6/49 (12%), 50%, not calculated and 12/49 (24%), 1/46 (2%), 92%, p<0.01
Dose [Inhibitor]: 0, 100 PPM IN FEED FOR 103 WK (STUDY DURATION: 2 YR), Species: MOUSE, Strain/Sex: B6C3F1/FEMALE, Target Tissue: Type of Lesion: HARDERIAN GLAND: ADENOMA
  tumour outcome (control, treated, inhibition, significance): 5/50 (10%), 0/47 (0%), 100%, p<0.05
Dose [Inhibitor]: 0, 100 PPM IN FEED FOR 103 WK (STUDY DURATION: 2 YR), Species: MOUSE, Strain/Sex: B6C3F1/FEMALE, Target Tissue: Type of Lesion: LUNG: ADENOMA OR CARCINOMA
  tumour outcome (control, treated, inhibition, significance): 8/50 (16%), 1/47 (2%), 88%, p<0.01
Dose [Inhibitor]: 0, 100 PPM IN FEED FOR 103 WK (STUDY DURATION: 2 YR), Species: MOUSE, Strain/Sex: B6C3F1/FEMALE, Target Tissue: Type of Lesion: LUNG: ADENOMA
  tumour outcome (control, treated, inhibition, significance): 7/50 (14%), 1/47 (2%), 86%, p<0.05
Dose [Inhibitor]: 0, 100 PPM IN FEED FOR 103 WK (STUDY DURATION: 2 YR), Species: MOUSE, Strain/Sex: B6C3F1/MALE, Target Tissue: Type of Lesion: LIVER: ADENOMA OR CARCINOMA
  tumour outcome (control, treated, inhibition, significance): 14/50 (28%), 2/50 (4%), 86%, p<0.01
Dose [Inhibitor]: 0, 100 PPM IN FEED FOR 103 WK (STUDY DURATION: 2 YR), Species: MOUSE, Strain/Sex: B6C3F1/MALE, Target Tissue: Type of Lesion: LIVER: ADENOMA
  tumour outcome (control, treated, inhibition, significance): 10/50 (20%), 1/50 (2%), 90%, p<0.01
Dose [Inhibitor]: 0, 100 PPM IN FEED FOR 103 WK (STUDY DURATION: 2 YR), Species: MOUSE, Strain/Sex: B6C3F1/MALE, Target Tissue: Type of Lesion: LIVER: CARCINOMA
  tumour outcome (control, treated, inhibition, significance): 4/50 (8%), 1/50 (2%), 75%, not calculated
Dose [Inhibitor]: 0, 100 PPM IN FEED FOR 103 WK (STUDY DURATION: 2 YR), Species: MOUSE, Strain/Sex: B6C3F1/MALE, Target Tissue: Type of Lesion: LUNG: ADENOMA
  tumour outcome (control, treated, inhibition, significance): 6/50 (12%), 3/50 (6%), 50%, not calculated
Dose [Inhibitor]: 0, 100 PPM IN FEED FOR 103 WK (STUDY DURATION: 2 YR), Species: RAT, Strain/Sex: F344/FEMALE, Target Tissue: Type of Lesion: ANTERIOR PITUITARY GLAND: ADENOMA
  tumour outcome (control, treated, inhibition, significance): 31/50 (62%), 19/50 (38%), 39%, p<0.05
Dose [Inhibitor]: 0, 100 PPM IN FEED FOR 103 WK (STUDY DURATION: 2 YR), Species: RAT, Strain/Sex: F344/FEMALE, Target Tissue: Type of Lesion: MAMMARY GLAND: FIBROADENOMA
  tumour outcome (control, treated, inhibition, significance): 21/50 (42%), 2/50 (4%), 90%, p<0.01
Dose [Inhibitor]: 0, 100 PPM IN FEED FOR 103 WK (STUDY DURATION: 2 YR), Species: RAT, Strain/Sex: F344/FEMALE, Target Tissue: Type of Lesion: UTERUS: ENDOMETRIAL STROMA POLYP
  tumour outcome (control, treated, inhibition, significance): 10/50 (20%), 3/50 (6%), 70%, p<0.05
Dose [Inhibitor]: 0, 100 PPM IN FEED FOR 103 WK (STUDY DURATION: 2 YR), Species: RAT, Strain/Sex: F344/MALE, Target Tissue: Type of Lesion: ADRENAL GLAND: PHEOCHROMOCYTOMA
  tumour outcome (control, treated, inhibition, significance): 23/49 (47%), 7/50 (14%), 70%, p<0.01
Dose [Inhibitor]: 0, 100 PPM IN FEED FOR 103 WK (STUDY DURATION: 2 YR), Species: RAT, Strain/Sex: F344/MALE, Target Tissue: Type of Lesion: ANTERIOR PITUITARY GLAND: ADENOMA
  tumour outcome (control, treated, inhibition, significance): 15/49 (31%), 9/49 (18%), 42%, not calculated
Dose [Inhibitor]: 0, 100 PPM IN FEED FOR 103 WK (STUDY DURATION; 2 YR), Dose [Inhibitor]: 0, 100 PPM IN FEED FOR 103 WK (STUDY DURATION; 2 YR), Species: MOUSE, Strain/Sex: B6C3F1/MALE, Target Tissue: Type of Lesion: HARDERIAN GLAND: ADENOMA
  tumour outcome (control, treated, inhibition, significance): 4/50 (8%), 0/50 (0%), 100%, not calculated
Dose [Inhibitor]: O, 20 PPM IN FEED FOR 103 WK (STUDY DURATION: 2 YR), Species: MOUSE, Strain/Sex: B6C3F1/MALE, Target Tissue: Type of Lesion: LUNG: ADENOMA OR CARCINOMA
  tumour outcome (control, treated, inhibition, significance): 8/50 (16%), 3/50 (6%), 63%, not calculated
Dose [Inhibitor]: O, 100 PPM IN FEED FOR 103 WK (STUDY DURATION: 2 YR), Species: MOUSE, Strain/Sex: B6C3F1/MALE, Target Tissue: Type of Lesion: LUNG: ADENOMA OR CARCINOMA
  tumour outcome (control, treated, inhibition, significance): 8/50 (16%), 4/50 (8%), 50%, not calculated
